pEC50: −log10 of the molar value. Where “and” joins values, the source holds several entries; their conditions need not be identical. Identical values can stand only once.
Key:
HCoV-OC43 [1] = assay: Antiviral activity in vitro, qRT-PCR, HCoV-OC43 in Huh-7 cells; assay type: cell-based; details: for HCoV-OC43, Huh-7: inhibition at the concentration (Fig2B): replicates
HCoV-OC43 spike protein = assay: Cell-cell fusion assay (HCoV-OC43 spike); assay type: cell-based; details: spike-transfected 293T cells with RD cells
Method: To obtain further insight into the stage at which DBM inhibits the replication of HCoV-OC43 and other HCoVs, RD cells were incubated with compounds, including DBM, remdesivir (RDV), and chloroquine (CQ), at different stages of viral infection. Viral RNA from the supernatant was extracted and quantitatively analysed via qRT-PCR. […] For the viral binding assay, cells were cultured in the presence or absence of DBM at different concentrations for 1 hour before being infected with HCoV-OC43 at an MOI of 50, and then were placed on ice for 2 hours for the viral particles to bind to the membrane of the host cells, followed by washing with PBS. […] In addition to binding to receptors from host cells, the spike proteins of HCoV-OC43 could also trigger membrane fusion when HCoV-OC43 spike plasmid-transfected 293T cells were seeded together with RD cells as target cells, and the addition of DBM had no effect on this process (S5C Fig). To examine whether DBM inhibits viral internalisation, cells were inoculated with HCoV-OC43 for 1 hour on ice before being treated with either DBM or DMSO, and CQ was included to prevent endosomal acidification. […] To determine whether DBM influences viral release, we quantified viral RNA both intracellularly and in the supernatant. […]

HCoV-OC43 [2] = assay: Viral entry and internalization assay; assay type: cell-based; details: confocal microscopy
Method: To obtain further insight into the stage at which DBM inhibits the replication of HCoV-OC43 and other HCoVs, RD cells were incubated with compounds, including DBM, remdesivir (RDV), and chloroquine (CQ), at different stages of viral infection. Viral RNA from the supernatant was extracted and quantitatively analysed via qRT-PCR. […] For the viral binding assay, cells were cultured in the presence or absence of DBM at different concentrations for 1 hour before being infected with HCoV-OC43 at an MOI of 50, and then were placed on ice for 2 hours for the viral particles to bind to the membrane of the host cells, followed by washing with PBS. […] In addition to binding to receptors from host cells, the spike proteins of HCoV-OC43 could also trigger membrane fusion when HCoV-OC43 spike plasmid-transfected 293T cells were seeded together with RD cells as target cells, and the addition of DBM had no effect on this process (S5C Fig). […] To determine whether DBM influences viral release, we quantified viral RNA both intracellularly and in the supernatant.
The cells were seeded at a low density onto 35 mm glass bottom dishes with 10 mm microwells (Cellvis) and incubated overnight at 37 °C. […] The number of intracellular virus particles was quantified with ImageJ software.

in vivo = details: Sprague-Dawley, rat, po, 200 mg/kg
HCoV-229E = assay: Antiviral activity in vitro, viral RNA copies by qRT-PCR, HCoV-229E in Huh-7 cells; assay type: cell-based; details: for EC50 (229E, Huh-7): inhibition at the concentration: replicates
HCoV-OC43 [3] = assay: Viral release (intracellular versus supernatant viral RNA); assay type: cell-based
Method: To obtain further insight into the stage at which DBM inhibits the replication of HCoV-OC43 and other HCoVs, RD cells were incubated with compounds, including DBM, remdesivir (RDV), and chloroquine (CQ), at different stages of viral infection. Viral RNA from the supernatant was extracted and quantitatively analysed via qRT-PCR. […] For the viral binding assay, cells were cultured in the presence or absence of DBM at different concentrations for 1 hour before being infected with HCoV-OC43 at an MOI of 50, and then were placed on ice for 2 hours for the viral particles to bind to the membrane of the host cells, followed by washing with PBS. […] To determine whether DBM influences viral release, we quantified viral RNA both intracellularly and in the supernatant.
A) Efficacy of DBM, remdesivir (RDV), and chloroquine (CQ) in inhibiting virus replication at different stages of administration. […] C) Fluorescence images of cell-cell fusion induced by the transient expression of HCoV-OC43 spike proteins and eGFP (green) in RD cells. […] D) Confocal fluorescence microscopy images showing HCoV-OC43 internalization. E) Quantification of intracellular viral particles per cell, based on images obtained from confocal fluorescence microscopy. […] Data were statistically analysed with Student’s T test. *: p ≤ 0.05, **: p ≤ 0.01, ***: p ≤ 0.001, ****: p ≤ 0.0001; ns, not significant. […]

HCoV-OC43 [4] = assay: Cytokine gene expression in brains and spinal cords of infected mice; assay type: in vivo, BALB/c suckling mice; details: for CCL2 gene expression / CXCL10 gene expression / IL1B gene expression / IL6 gene expression / TNF gene expression: one value per animal

In the case of `O=C(CC(=O)c1ccccc1)c1ccccc1` [DBM, dibenzoylmethane], the pEC50 (HCoV-OC43 [1]; Betacoronavirus 1, OC43, Huh-7, 24 h, read-out: EC50 HCoV-OC43 (Huh-7)) was 7.05, the “HCoV-OC43, Huh-7: inhibition at the concentration (Fig2B)” value (“HCoV-OC43, Huh-7: inhibition” for short) (HCoV-OC43 [1]; conc. 0.1 (unit not given)) was 51.3 and 53.7 and 47.2 and the “HCoV-OC43, Huh-7: inhibition” value (HCoV-OC43 [1]; conc. 0.2 (unit not given)) was 64.6 and 65.3 and 60.0. For the same compound, the “HCoV-OC43, Huh-7: inhibition” value (HCoV-OC43 [1]; conc. 0.7 (unit not given)) was 95.4 and 95.1 and 94.4, the “HCoV-OC43, Huh-7: inhibition” value (HCoV-OC43 [1]; conc. 2.2 (unit not given)) was 98.2 (2×) and 98.0 and the “HCoV-OC43, Huh-7: inhibition” value (HCoV-OC43 [1]; conc. 6.7 (unit not given)) was 98.4. The “HCoV-OC43, Huh-7: inhibition” value (HCoV-OC43 [1]; conc. 20.0 (unit not given)) was 98.3 (2×) and 98.5, the spike-triggered membrane fusion (HCoV-OC43 spike protein) was “had no effect” and the viral internalisation (HCoV-OC43 [2]) was “did not interfere”. The AUC(0-t) (in vivo) was 34300 ng·h/mL, the Cmax (in vivo) was 4760 ng/mL and the half-life (in vivo) was 2.91 h. For the same compound, the pEC50 (HCoV-229E; Human coronavirus 229E, Huh-7, 24 h, read-out: EC50 HCoV-229E (Huh-7)) was 5.17, the “EC50 (229E, Huh-7): inhibition at the concentration” value (“EC50 (229E, Huh-7): inhibition” for short) (HCoV-229E; conc. 0.1 (unit not given)) was 60.8 and 22.3 and 20.2 and the “EC50 (229E, Huh-7): inhibition” value (HCoV-229E; conc. 0.2 (unit not given)) was 25.5 and 35.2. For the same compound, the “EC50 (229E, Huh-7): inhibition” value (HCoV-229E; conc. 0.7 (unit not given)) was 37.7 and 44.1, the “EC50 (229E, Huh-7): inhibition” value (HCoV-229E; conc. 2.2 (unit not given)) was 13.1 and 6.1 and 18.7 and the “EC50 (229E, Huh-7): inhibition” value (HCoV-229E; conc. 6.7 (unit not given)) was 65 and 69.4 and 38.7. For the same compound, the “EC50 (229E, Huh-7): inhibition” value (HCoV-229E; conc. 20 (unit not given)) was 91.1 and 94.4 and 99.5, the “proportion of viral RNAs released into the supernatant versus controls” value (HCoV-OC43 [3]) was “No significant difference” and the “Proportion of release of HCoV-OC43 RNA” value (HCoV-OC43 [3]; DBM-treated samples, replicates) was 0.9 and 1.5 and 5.8. For the same compound, the CCL2 gene expression (HCoV-OC43 [4]; BRAIN, DBM 100 mpk) was 1.51 and 1.54 and 1.00 and 1.20 and 1.62 and 1.74, the CXCL10 gene expression (HCoV-OC43 [4]; BRAIN, DBM 100 mpk) was 2.90 and 3.33 (2×) and 2.35 and 2.81 and 3.27 and the IL1B gene expression (HCoV-OC43 [4]; BRAIN, DBM 100 mpk) was 1.23 and 1.14 (2×) and 0.87 and 0.89 and 1.66. The IL6 gene expression (HCoV-OC43 [4]; BRAIN, DBM 100 mpk) was 0.95 and 1.15 and 0.67 and 0.94 and 1.52 and 1.33, the TNF gene expression (HCoV-OC43 [4]; BRAIN, DBM 100 mpk) was 1.36 (2×) and 0.92 and 0.88 and 1.72 and 1.28 and the CCL2 gene expression (HCoV-OC43 [4]; BRAIN, DBM 200 mpk) was 1.46 and -0.88 and 0.68 and 1.08 and 1.88. For the same compound, the CXCL10 gene expression (HCoV-OC43 [4]; BRAIN, DBM 200 mpk) was 3.15 and -0.32 and 2.05 and 2.44 and 3.30, the IL1B gene expression (HCoV-OC43 [4]; BRAIN, DBM 200 mpk) was 1.27 and -1.00 and 0.43 and 0.66 and 1.46 and the IL6 gene expression (HCoV-OC43 [4]; BRAIN, DBM 200 mpk) was 1.26 and -0.71 and 0.30 and 0.34 and 1.23. For the same compound, the TNF gene expression (HCoV-OC43 [4]; BRAIN, DBM 200 mpk) was 1.14 and -1.10 and 0.49 and 0.84 and 1.31, the CCL2 gene expression (HCoV-OC43 [4]; BRAIN, DBM 500 mpk) was 1.19 and 0.29 and 0.89 and 1.43 and the CXCL10 gene expression (HCoV-OC43 [4]; BRAIN, DBM 500 mpk) was 2.39 and 1.30 and 1.07 and 2.91. The IL1B gene expression (HCoV-OC43 [4]; BRAIN, DBM 500 mpk) was 1.46 and 0.54 and 0.85 and 1.71, the IL6 gene expression (HCoV-OC43 [4]; BRAIN, DBM 500 mpk) was 0.93 and 0.71 and 0.92 and 1.17 and the TNF gene expression (HCoV-OC43 [4]; BRAIN, DBM 500 mpk) was 1.05 and 0.22 and 0.74 and 1.31. The “inflammation (cytokine gene expression) in the brain and spinal cord” value (HCoV-OC43 [4]; CCL2, CXCL10, IL-1β, IL-6, TNF-α, 5 dpi) was “dramatically reduced inflammation”, the CCL2 gene expression (HCoV-OC43 [4]; SPINAL CORD, DBM 100 mpk) was 0.10 and -0.50 and -0.53 and -0.21 and -0.06 and -0.89 and the CXCL10 gene expression (HCoV-OC43 [4]; SPINAL CORD, DBM 100 mpk) was 2.03 and 1.48 and 0.34 and 0.55 and 1.02 and 0.66. For the same compound, the IL1B gene expression (HCoV-OC43 [4]; SPINAL CORD, DBM 100 mpk) was -0.76 and -1.28 and -0.98 and -0.97 and -0.64 and -1.78, the IL6 gene expression (HCoV-OC43 [4]; SPINAL CORD, DBM 100 mpk) was 1.39 and -0.72 and 0.41 and 1.02 and 0.87 and 0.47 and the TNF gene expression (HCoV-OC43 [4]; SPINAL CORD, DBM 100 mpk) was 0.47 and -0.10 and -0.18 and 0.26 and 0.80 and -0.63. The CCL2 gene expression (HCoV-OC43 [4]; SPINAL CORD, DBM 200 mpk) was -0.12 and -1.42 and -0.38 and -0.65 and 0.03, the CXCL10 gene expression (HCoV-OC43 [4]; SPINAL CORD, DBM 200 mpk) was 1.47 and -1.58 and 0.55 and 0.23 and 1.42 and the IL1B gene expression (HCoV-OC43 [4]; SPINAL CORD, DBM 200 mpk) was -0.83 and -1.94 and -0.93 and -0.47 and -0.26. The IL6 gene expression (HCoV-OC43 [4]; SPINAL CORD, DBM 200 mpk) was 0.59 and -0.46 and 0.79 and 0.02 and 0.49, the TNF gene expression (HCoV-OC43 [4]; SPINAL CORD, DBM 200 mpk) was -0.40 and -0.33 and -1.12 and -0.23 and 0.63 and the CCL2 gene expression (HCoV-OC43 [4]; SPINAL CORD, DBM 500 mpk) was 2.46 and 1.15 and -0.63 and 0.95. For the same compound, the CXCL10 gene expression (HCoV-OC43 [4]; SPINAL CORD, DBM 500 mpk) was 3.10 and 2.34 and 0.15 and 1.92, the IL1B gene expression (HCoV-OC43 [4]; SPINAL CORD, DBM 500 mpk) was 2.44 and 0.22 and -1.51 and 0.43 and the IL6 gene expression (HCoV-OC43 [4]; SPINAL CORD, DBM 500 mpk) was 3.07 and 2.18 and -0.81 and 1.64. For the same compound, the TNF gene expression (HCoV-OC43 [4]; SPINAL CORD, DBM 500 mpk) was 3.77 and 1.80 and -0.57 and 1.44.
